The text below walks through data of patent US20090137844A1, “Crystallization process” (Fermion Oy, priority 2005, published 2009).

SMILES strings stand for the structures. Where a name gives a salt, the structure may show the parent alone.

Assay type in all cases: physicochemical
The nature of data set [1]: Solubility in alcoholic solvents.
Data set [2] is described as follows: Crystal particle size by light microscope (visually observed). The settings on record: for Size of particle (light microscope), 90% of crystals below: procedure of Example 1. The method, then:
Particle size distribution is analyzed visually using light microscope or by laser diffraction using the following method: In table 1 below there are the results of experiments using different addition temperatures. Procedure is the same as above.

Data set [3] is described as follows: Volumetric particle size distribution by laser diffraction (Coulter LS230). The settings on record: for Particle size distribution (laser diffraction) LDP 10 / Particle size distribution (laser diffraction) LDP 50 / Particle size distribution (laser diffraction) LDP 90: procedure of Example 1. On the procedure:
Particle size distribution is analyzed visually using light microscope or by laser diffraction using the following method: Saturated 2-Propanol: To 250 ml of 2-propanol is added approx 1 g of tamsulosin HCl powder and sonicated at room temperature about 30 min. The mixture is let stand overnight, hereafter it is filtered through […] membrane filter. Sample Preparation About 30 mg of tamsulosin HCl is weighed in a 25 ml decanter. 2-4 drops of saturated 2-propanol is added to the sample and stirred with a glass rod. After that 4 ml of saturated 2-propanol is added and the sample is kept in ultra sound for 30 seconds before measuring volumetric particle size distribution using Coulter LS230, Laser Diffraction Particle Size Analyzer.

[4] abbreviates: Example 2: 15% HCl added at 40° C., cooled to 20° C.
Where [5] appears, read: Example 3: Example 2 repeated, HCl addition temperature 20° C.

For the compound `CCOc1ccccc1OCCNC(C)Cc1ccc(OC)c(S(N)(=O)=O)c1` (centres unmarked) [tamsulosin, 5-[2-[[2-(2-ethoxyphenoxy)ethyl]amino]propyl]-2-methoxybenzene-sulfonamide], in data set [1], the Solubility result is “poorly soluble”.

Regarding `CCOc1ccccc1OCCNC(C)Cc1ccc(OC)c(S(N)(=O)=O)c1` (centres unmarked) [tamsulosin hydrochloride, 5-[2-[[2-(2-ethoxyphenoxy)ethyl]amino]propyl]-2-methoxybenzene-sulfonamide], the “Size of particle (light microscope), 90% of crystals below” value in data set [2] (HCl added at 0° C.) is on record as 90% < 3 μm; in data set [2] (HCl added at 10° C.) it was 90% < 5 μm; in data set [2] (HCl added at 20° C.), 90% < 10 μm; in data set [2] (HCl added at 30° C.), 90% < 15 μm; in data set [2] (HCl added at 40° C.), 90% < 30 μm; in data set [2] (HCl added at 80° C.) it was 90% < 250 μm. For the same compound, the figures for the “Size below which 90% of the crystals are (light microscope)” value in data set [2] (hydrochloride added at e.g. 80° C.) and in data set [2] (hydrochloride added below about 30° C.) were “below 250 micrometers” and “below 15 micrometers”, respectively. Besides, the “Crystal size distribution (laser diffraction) LDP 10” value in data set [3] (setting [4]) was 5 μm; in data set [3] (setting [5]) it was 3 μm. For the same compound, the “Crystal size distribution (laser diffraction) LDP 50” value in data set [3] (setting [4]) worked out at 20 μm; in data set [3] (setting [5]), 14 μm. Besides, the “Crystal size distribution (laser diffraction) LDP 90” value in data set [3] (setting [4]) is on record as 36 μm; in data set [3] (setting [5]) it was 29 μm. The “Particle size distribution (laser diffraction) LDP 10” value in data set [3] (HCl added at 0° C.) is given as “LDP 10 = 1 μm”; in data set [3] (HCl added at 10° C.), “LDP 10 = 1 μm”; in data set [3] (HCl added at 20° C.), “LDP 10 = 2 μm”; in data set [3] (HCl added at 30° C.), “LDP 10 = 4 μm”; in data set [3] (HCl added at 40° C.), “LDP 10 = 9 μm”. The “Particle size distribution (laser diffraction) LDP 50” value in data set [3] (HCl added at 0° C.) is reported as “LDP 50 = 3 μm”; in data set [3] (HCl added at 10° C.), “LDP 50 = 5 μm”; in data set [3] (HCl added at 20° C.), “LDP 50 = 7 μm”; in data set [3] (HCl added at 30° C.), “LDP 50 = 15 μm”; in data set [3] (HCl added at 40° C.) it was “LDP 50 = 29 μm”. Besides, the “Particle size distribution (laser diffraction) LDP 90” value is listed as “LDP 90 = 12 μm” in data set [3] (HCl added at 0° C.); “LDP 90 = 10 μm” in data set [3] (HCl added at 10° C.); “LDP 90 = 17 μm” in data set [3] (HCl added at 20° C.); “LDP 90 = 29 μm” in data set [3] (HCl added at 30° C.); “LDP 90 = 55 μm” in data set [3] (HCl added at 40° C.). For the same compound, the “Size below which 90% of the crystals are (laser diffraction)” value in data set [3] (addition temperature about 20° C.) is “below 20 micrometers”; in data set [3] (addition temperature about 40° C.), “below 60 micrometers”.
